From paper PMC8364686, “Safety, tolerability, pharmacokinetics and pharmacodynamics of single oral doses of BI 187004, an inhibitor of 11beta-hydroxysteroid dehydrogenase-1, in healthy male volunteers with overweight or obesity” (Clinical Diabetes and Endocrinology, 2021)
Where “and” joins values, the source holds several entries; their conditions need not be identical. Equal values may be shown once.

Key:
[1] = Urinary excretion of BI 187004 (LC–MS/MS); assay type: in vivo, human
From the text: For each accepted run, the acceptance criteria for the calibration standards and quality controls were met.

[2] = system: hypothalamus–pituitary–adrenal axis hormones; test: Hormones of the HPA axis: difference from baseline; assay type: in vivo, human
Protocol: Safety and tolerability of BI 187004 were assessed in a descriptive way using the following investigations: recording of adverse events, clinical laboratory parameters (haematology, coagulation, enzymes, substrates, electrolytes, hormones, and urinalysis), vital signs (blood pressure, puls rate), 12-lead ECG (electrocardiogram) with special attention to QTc prolongation, and physical examination (occurrence of findings).

## N#Cc1ccc2c(c1)[C@H]1CCCN(C(=O)c3ccc4[nH]cnc4c3)[C@H]1C2 [BI 187004]
[1]; 0–72 h collection interval
  Fraction of dose excreted in urine (renal excretion), range across dose groups: 3–5% and 3.00–4.93%
[1]; 5 mg single oral dose
  fe0-72 h (fraction eliminated in urine from 0 to 72 h): 3.00%
[1]; 10 mg single oral dose
  fe0-72 h (fraction eliminated in urine from 0 to 72 h): 4.03%
[1]; 20 mg single oral dose
  fe0-72 h (fraction eliminated in urine from 0 to 72 h): 4.93%
[1]; 40 mg single oral dose
  fe0-72 h (fraction eliminated in urine from 0 to 72 h): 4.21%
[1]; 80 mg single oral dose
  fe0-72 h (fraction eliminated in urine from 0 to 72 h): 4.55%
[1]; 160 mg single oral dose
  fe0-72 h (fraction eliminated in urine from 0 to 72 h): 4.75%
[1]; 240 mg single oral dose
  fe0-72 h (fraction eliminated in urine from 0 to 72 h): 4.88%
[1]; 360 mg single oral dose
  fe0-72 h (fraction eliminated in urine from 0 to 72 h): 4.25%
[2]; 2.5 mg single oral dose, 24:00
  ACTH mean difference from baseline: 0.59 pmol/L
  Androstenedione mean difference from baseline: 0.2 nmol/L
  Cortisol mean difference from baseline: -77.1 nmol/L
  DHEA-s mean difference from baseline: 0.7 µmol/L
  SHBG mean difference from baseline: 2.6 nmol/L
  Total Testosterone mean difference from baseline: 0.1 nmol/L
[2]; 2.5 mg single oral dose, 96:00
  ACTH mean difference from baseline: -0.46 pmol/L
  Androstenedione mean difference from baseline: -1.8 nmol/L
  Cortisol mean difference from baseline: -65.3 nmol/L
  DHEA-s mean difference from baseline: 2.1 µmol/L
  SHBG mean difference from baseline: -0.1 nmol/L
  Total Testosterone mean difference from baseline: -0.3 nmol/L
[2]; 5 mg single oral dose, 24:00
  ACTH mean difference from baseline: 0.53 pmol/L
  Androstenedione mean difference from baseline: 1.2 nmol/L
  Cortisol mean difference from baseline: 1.8 nmol/L
  DHEA-s mean difference from baseline: 1.6 µmol/L
  SHBG mean difference from baseline: 3.0 nmol/L
  Total Testosterone mean difference from baseline: -0.9 nmol/L
[2]; 5 mg single oral dose, 96:00
  ACTH mean difference from baseline: -1.65 pmol/L
  Androstenedione mean difference from baseline: -3.7 nmol/L
  Cortisol mean difference from baseline: -75.0 nmol/L
  DHEA-s mean difference from baseline: 0.9 µmol/L
  SHBG mean difference from baseline: 2.7 nmol/L
  Total Testosterone mean difference from baseline: -0.7 nmol/L
[2]; 10 mg single oral dose, 24:00
  ACTH mean difference from baseline: 0.78 pmol/L
  Androstenedione mean difference from baseline: 1.3 nmol/L
  Cortisol mean difference from baseline: -78.7 nmol/L
  DHEA-s mean difference from baseline: 1.2 µmol/L
  SHBG mean difference from baseline: 3.4 nmol/L
  Total Testosterone mean difference from baseline: -0.2 nmol/L
[2]; 10 mg single oral dose, 96:00
  ACTH mean difference from baseline: -1.35 pmol/L
  Androstenedione mean difference from baseline: -3.4 nmol/L
  Cortisol mean difference from baseline: -128.8 nmol/L
  DHEA-s mean difference from baseline: 1.9 µmol/L
  SHBG mean difference from baseline: 0.2 nmol/L
  Total Testosterone mean difference from baseline: -2.0 nmol/L
[2]; 20 mg single oral dose, 24:00
  ACTH mean difference from baseline: 1.53 pmol/L
  Androstenedione mean difference from baseline: 3.7 nmol/L
  Cortisol mean difference from baseline: 18.4 nmol/L
  DHEA-s mean difference from baseline: 2.2 µmol/L
  SHBG mean difference from baseline: 2.9 nmol/L
  Total Testosterone mean difference from baseline: -1.3 nmol/L
[2]; 20 mg single oral dose, 96:00
  ACTH mean difference from baseline: -0.58 pmol/L
  Androstenedione mean difference from baseline: 3.8 nmol/L
  Cortisol mean difference from baseline: -34.1 nmol/L
  DHEA-s mean difference from baseline: 2.1 µmol/L
  SHBG mean difference from baseline: 1.3 nmol/L
  Total Testosterone mean difference from baseline: -1.0 nmol/L
[2]; 40 mg single oral dose, 24:00
  ACTH mean difference from baseline: 1.44 pmol/L
  Androstenedione mean difference from baseline: 3.7 nmol/L
  Cortisol mean difference from baseline: -48.8 nmol/L
  DHEA-s mean difference from baseline: 1.7 µmol/L
  SHBG mean difference from baseline: 0.6 nmol/L
  Total Testosterone mean difference from baseline: -0.5 nmol/L
[2]; 40 mg single oral dose, 96:00
  ACTH mean difference from baseline: -0.01 pmol/L
  Androstenedione mean difference from baseline: 0.1 nmol/L
  Cortisol mean difference from baseline: -75.5 nmol/L
  DHEA-s mean difference from baseline: 2.3 µmol/L
  SHBG mean difference from baseline: -1.8 nmol/L
  Total Testosterone mean difference from baseline: -0.8 nmol/L
[2]; 80 mg single oral dose, 24:00
  ACTH mean difference from baseline: 4.69 pmol/L
  Androstenedione mean difference from baseline: 8.1 nmol/L
  Cortisol mean difference from baseline: 102.6 nmol/L
  DHEA-s mean difference from baseline: 2.6 µmol/L
  SHBG mean difference from baseline: 2.1 nmol/L
  Total Testosterone mean difference from baseline: 0.8 nmol/L
[2]; 80 mg single oral dose, 96:00
  ACTH mean difference from baseline: 1.36 pmol/L
  Androstenedione mean difference from baseline: 0.5 nmol/L
  Cortisol mean difference from baseline: -64.4 nmol/L
  DHEA-s mean difference from baseline: 2.4 µmol/L
  SHBG mean difference from baseline: -1.3 nmol/L
  Total Testosterone mean difference from baseline: 0.6 nmol/L
[2]; 160 mg single oral dose, 24:00
  ACTH mean difference from baseline: 1.34 pmol/L
  Androstenedione mean difference from baseline: 2.6 nmol/L
  Cortisol mean difference from baseline: -49.2 nmol/L
  DHEA-s mean difference from baseline: 1.6 µmol/L
  SHBG mean difference from baseline: 1.9 nmol/L
  Total Testosterone mean difference from baseline: 1.0 nmol/L
[2]; 160 mg single oral dose, 96:00
  ACTH mean difference from baseline: 0.05 pmol/L
  Androstenedione mean difference from baseline: 1.5 nmol/L
  Cortisol mean difference from baseline: -69.9 nmol/L
  DHEA-s mean difference from baseline: 2.2 µmol/L
  SHBG mean difference from baseline: -0.8 nmol/L
  Total Testosterone mean difference from baseline: 2.4 nmol/L
[2]; 240 mg single oral dose, 24:00
  ACTH mean difference from baseline: 0.87 pmol/L
  Androstenedione mean difference from baseline: 5.0 nmol/L
  Cortisol mean difference from baseline: -7.3 nmol/L
  DHEA-s mean difference from baseline: 1.6 µmol/L
  SHBG mean difference from baseline: 2.3 nmol/L
  Total Testosterone mean difference from baseline: -2.8 nmol/L
[2]; 240 mg single oral dose, 96:00
  ACTH mean difference from baseline: -0.27 pmol/L
  Androstenedione mean difference from baseline: 2.7 nmol/L
  Cortisol mean difference from baseline: -5.1 nmol/L
  DHEA-s mean difference from baseline: 2.3 µmol/L
  SHBG mean difference from baseline: 2.5 nmol/L
  Total Testosterone mean difference from baseline: -2.4 nmol/L
[2]; 360 mg single oral dose, 24:00
  ACTH mean difference from baseline: 1.30 pmol/L
  Androstenedione mean difference from baseline: 3.2 nmol/L
  Cortisol mean difference from baseline: -40.0 nmol/L
  DHEA-s mean difference from baseline: 1.2 µmol/L
  SHBG mean difference from baseline: 0.9 nmol/L
  Total Testosterone mean difference from baseline: -0.3 nmol/L
[2]; 360 mg single oral dose, 96:00
  ACTH mean difference from baseline: 0.38 pmol/L
  Androstenedione mean difference from baseline: -0.3 nmol/L
  Cortisol mean difference from baseline: -132.9 nmol/L
  DHEA-s mean difference from baseline: 1.6 µmol/L
  SHBG mean difference from baseline: -2.2 nmol/L
  Total Testosterone mean difference from baseline: 0.7 nmol/L
